Tests used:
[1] = tested on: Rat liver cells; assay: Viability of liver cells exposed to thioacetamide (mitochondrial dehydrogenase activity), OmniCytes without cell contact; assay type: cell-based; details: rat liver cells exposed to TAA only
Procedure: (§1) Rat liver cells were exposed to the hepatotoxin thioacetamide (TAA), which induces liver damage such as cirrhosis and fibrosis. The control was only exposed to TAA, whereas the experimental group was also exposed to OmniCytes without cell contact. Cell viability (expressed as mitochondrial dehydrogenase activity) was assessed.

[2] = tested on: Rat liver cells; assay: Bilirubin levels of liver cells exposed to thioacetamide, OmniCytes without cell contact; assay type: cell-based; details: liver cells exposed to TAA only
Procedure: as §1
Liver function was also assayed by measuring bilirubin levels. Aberrantly high levels of bilirubin are typically indicative of a liver disorder or malfunction.

[3] = tested on: A549 lung cancer cell line; assay: Apoptosis of A549 cells co-cultured with OmniCytes (direct cell contact), FACS Annexin V/7-AAD; assay type: cell-based, human; details: A549, control group: staurosporine alone, plate without membrane
Procedure: (§2) Human non-small-cell lung cancer line A549 was obtained from American Type Culture Collection (catalogue number CCL-185, Rockville, Md., USA) and grown in Ham's F 12-K medium supplemented with 10% fetal bovine serum and 1% penicillin/streptomycin in a 37° C. humidified incubator with 5% CO2.
(§3) 3×10^5 cancer cells were plated into the bottom of 24 mm Transwell 6 well plates with or without […] pore polycarbonate membrane insert (Corning Life Sciences, USA) with 2 mL of the appropriate cell culture medium. […]
(§4) To determine effect of OmniCytes on apoptosis, 3×10^5 OmniCytes were added 24 hours after the onset of apoptosis induction either to the top of the Transwell insert with 1 ml α-MEM (Gibco, UK) supplemented with 30% FBS (Gibco, UK) and 10% GM-MIX (for no contact conditions) or directly into the same well as the cells (for contact conditions). […] After 24 or 48 hours the inserts were removed and the cancer cells analysed for apoptosis and Bcl-2, Bcl-xL and Bax expression.
(§5) Apoptosis was analysed using the method of staining with fluorescein isothiocyanate (FITC)-Annexin V and 7-AAD-FITC previously described by Ikewaki et al. (2007). […] FITC-Annexin V staining was measured in FL1-H and FITC-7-AAD staining in FL3-H. […]

[4] = tested on: A549 lung cancer cell line; assay: Apoptosis of A549 cells with OmniCytes in Transwell assay (no cell contact), FACS Annexin V/7-AAD; assay type: cell-based, human; details: A549, control group: staurosporine alone, Transwell with membrane
Procedure: as §2, §3, §4, §5

[5] = tested on: A549 lung cancer cell line; assay: Apoptosis of A549 cells with OmniCytes in Transwell assay (no cell contact), DAPI nuclear staining, immuno-fluorescent microscopy; assay type: cell-based, human; details: A549, control group: staurosporine alone
Procedure: 3×10^5 cancer cells were plated into the bottom of 24 mm Transwell 6 well plates with or without […] pore polycarbonate membrane insert (Corning Life Sciences, USA) with 2 mL of the appropriate cell culture medium. Transwell plates with a polycarbonate membrane insert allow the exchange of soluble factors but prevent cell-cell contact, whereas Transwell plates without the membrane allow cell to cell contact. After 24 hours apoptosis was induced in cancer cells according to the designated protocol. Cells were incubated at 37° C. in 5% CO2/95% air. […]
as §4
10^5 cells were fixed using 4% paraformaldehyde (PFA) for 15 minutes at room temperature and washed 3 times with PBS (Gibco, UK). […] Cells were visualised on a Zeiss fluorescent microscope and analysed using the Metamorph programme. […]
For each sample, a minimum of 5 random fields were assessed and at least 250 cells were counted. […]

[6] = tested on: A549 lung cancer cells; assay: TNF-alpha blocking antibody study: A549 cells with staurosporine and OmniCytes without direct cell contact; assay type: cell-based, human; details: A549, control: staurosporine, OmniCyte-free
Procedure: The effect of TNF-alpha blocking antibodies was tested. A549 lung cancer cells were exposed to staurosporine and OmniCytes were added without direct cell contact. The control was OmniCyte-free. TNF-alpha blocking antibodies (Abeam™, Cambridge, UK) at two different concentrations (5 or 10 μg/mL) were added.

SMILES | cell viability (mitochondrial dehydrogenase activity) [1] | bilirubin levels [2] | mean of apoptosis (Annexin V positive cells) [3] | apoptosis (Annexin V positive cells) [4] | apoptosis by nuclear staining (DAPI) [5] | apoptosis [6]
CC(=N)S [TAA, thioacetamide] | significantly decreased cell viability | caused bilirubin levels to rise |  |  |  | 
CN[C@@H]1C[C@H]2O[C@@](C)([C@@H]1OC)n1c3ccccc3c3c4c(c5c6ccccc6n2c5c31)C(=O)NC4 [staurosporine] |  |  | 22.77%±4.87 | 26.85%±2.15 | 18.32%±1.81 | 22.13%±0.74

Reference: US8652846B2, “Medium derived from stem cells as a pharmaceutical composition” (Omnicyte Limited, priority 2008, dated 2014)
